Test results published in ChEMBL document CHEMBL5608189, “Design and synthesis of unique indole-benzosulfonamide oleanolic acid derivatives as potent antibacterial agents against MRSA” (Eur J Med Chem, 2024).
In brackets after ≈: the same amount, converted by molar mass. Activity calls are given as the source filed them. No cut-off for these calls is given here.

Columns and labels:
[1] = system: Staphylococcus epidermidis; test: Antibacterial activity against Staphylococcus epidermidis ATCC 12228 measured after 24 hrs by susceptibility assay; assay type: functional
[2] = system: Staphylococcus aureus; test: Antibacterial activity against methicillin-resistant Staphylococcus aureus measured after 24 hrs by susceptibility assay; assay type: functional
[3] = system: Staphylococcus aureus; test: Antibacterial activity against Staphylococcus aureus ATCC 29213 measured after 24 hrs by susceptibility assay; assay type: functional
[4] = system: Staphylococcus aureus; test: Bactericidal activity against Staphylococcus aureus ATCC 6538 measured after 24 hrs; assay type: functional
[5] = system: Staphylococcus aureus; test: Bactericidal activity against Staphylococcus aureus ATCC 29213 measured after 24 hrs; assay type: functional
[6] = system: Staphylococcus epidermidis; test: Bactericidal activity against Staphylococcus epidermidis ATCC 12228 measured after 24 hrs; assay type: functional
[7] = system: Staphylococcus aureus; test: Bactericidal activity against methicillin-resistant Staphylococcus aureus measured after 24 hrs; assay type: functional
[8] = system: Staphylococcus aureus; test: Antibacterial activity against Staphylococcus aureus ATCC 6538 assessed as inhibition of bacterial growth at 1 times MIC measured every 2 hrs for 24 hrs by time kill assay; assay type: functional, organism-based
[9] = system: Staphylococcus epidermidis; test: Antibacterial activity against Staphylococcus epidermidis ATCC 12228 assessed as inhibition of bacterial growth at 1 times MIC measured every 2 hrs for 24 hrs by time kill assay; assay type: functional, organism-based
[10] = system: Staphylococcus aureus; test: Antibacterial activity against methicillin-resistant Staphylococcus aureus assessed as inhibition of bacterial growth at 1 times MIC measured every 2 hrs for 24 hrs by time kill assay; assay type: functional, organism-based
[11] = system: Staphylococcus aureus; test: Antibacterial activity against Staphylococcus aureus ATCC 6538 assessed as delay in bacterial growth at 0.5 times MIC measured every 2 hrs for 24 hrs by time kill assay; assay type: functional, organism-based
[12] = system: Staphylococcus epidermidis; test: Antibacterial activity against Staphylococcus epidermidis ATCC 12228 assessed as delay in bacterial growth at 0.5 times MIC measured every 2 hrs for 24 hrs by time kill assay; assay type: functional, organism-based
[13] = system: Staphylococcus aureus; test: Antibacterial activity against methicillin-resistant Staphylococcus aureus assessed as delay in bacterial growth at 0.5 times MIC measured every 2 hrs for 24 hrs by time kill assay; assay type: functional, organism-based
[14] = system: Staphylococcus epidermidis; test: Antibacterial activity against Staphylococcus epidermidis ATCC 12228 assessed as inhibition of bacterial growth at 2 to 4 times MIC measured every 2 hrs for 24 hrs by time kill assay relative to control; assay type: functional
[15] = system: Staphylococcus aureus; test: Antibacterial activity against methicillin-resistant Staphylococcus aureus assessed as inhibition of bacterial growth at 2 to 4 times MIC measured every 2 hrs for 24 hrs by time kill assay relative to control; assay type: functional
[16] = system: Staphylococcus aureus; test: Resistant development in methicillin-resistant Staphylococcus aureus assessed as increase in MIC at sub-MIC measured after 20 passages; assay type: functional, organism-based
[17] = system: Staphylococcus aureus; test: Antibiofilm activity in methicillin-resistant Staphylococcus aureus assessed as inhibition of biofilm formation at 16 times MIC measured after 24 hrs by crystal violet staining based analysis relative to control; assay type: functional
[18] = system: Staphylococcus aureus; test: Antibiofilm activity in methicillin-resistant Staphylococcus aureus assessed as eradication of formed biofilm by measuring reduction in biofilm mass at 1 times MIC measured after 24 hrs by crystal violet staining based analysis relative to control; assay type: functional; set-up: scale not given: the % may be the effect or the level left
[19] = system: Staphylococcus aureus; test: Antibacterial activity against methicillin-resistant Staphylococcus aureus assessed as reduction in metabolic activity at 1 to 8 times MIC measured after 24 hrs by alamar blue assay; assay type: functional, organism-based
[20] = system: Staphylococcus aureus; test: Antibacterial activity against methicillin-resistant Staphylococcus aureus assessed as reduction in metabolic activity at 8 times MIC measured after 24 hrs by alamar blue assay relative to control; assay type: functional; set-up: scale not given: the % may be the effect or the level left
[21] = system: Cell membrane; test: Disruption of cell membrane integrity in methicillin-resistant Staphylococcus aureus assessed as protein leakage at 8 times MIC incubated for 8 hrs by BCA assay; assay type: cell membranes
[22] = system: Staphylococcus aureus; test: Induction of morphological changes in methicillin-resistant Staphylococcus aureus assessed as disruption of cellular structure at 8 times MIC incubated for 8 hrs by SEM analysis; assay type: functional, organism-based
[23] = system: Cell membrane; test: Disruption of cell membrane integrity in methicillin-resistant Staphylococcus aureus assessed as leakage of cellular content at 8 times MIC incubated for 8 hrs by TEM analysis; assay type: cell membranes
[24] = system: Cell membrane; test: Induction of cell membrane damage in methicillin-resistant Staphylococcus aureus assessed as increase in red fluorescence in PI channel at 8 times MIC incubated for 4 hrs by Calcein-AM/PI staining based confocal microscopic analysis; assay type: cell membranes
[25] = system: Cell membrane; test: Induction of membrane depolarization in methicillin-resistant Staphylococcus aureus assessed as increase in fluorescence intensity at 1 to 8 times MIC measured after 30 mins by DiSC3(5) dye based spectrofluorometer; assay type: cell membranes
[26] = system: Cell membrane; test: Induction of cell membrane in methicillin-resistant Staphylococcus aureus assessed as increase in fluorescence intensity at 1 to 8 times MIC measured after 30 mins by SYTOX green dye based spectrofluorometer; assay type: cell membranes
[27] = system: Cell membrane; test: Induction of cell membrane in methicillin-resistant Staphylococcus aureus assessed as increase in fluorescence intensity by measuring number of PI-permeable cells at 2 times MIC measured after 2 hrs by PI staining based flow cytometry analysis (reference value: 5.71); assay type: cell membranes
[28] = system: Cell membrane; test: Induction of cell membrane in methicillin-resistant Staphylococcus aureus assessed as increase in fluorescence intensity by measuring number of PI-permeable cells at 4 times MIC measured after 2 hrs by PI staining based flow cytometry analysis (reference value: 5.71); assay type: cell membranes
[29] = system: Cell membrane; test: Induction of cell membrane in methicillin-resistant Staphylococcus aureus assessed as increase in fluorescence intensity by measuring number of PI-permeable cells at 8 times MIC measured after 2 hrs by PI staining based flow cytometry analysis (reference value: 5.71); assay type: cell membranes
[30] = system: NIH3T3; test: Cytotoxicity against mouse NIH3T3 cells assessed as reduction in cell viability upto 64 times MIC incubated for 24 hrs by CCK-8 assay; assay type: toxicity, cell-based; settings: nih3t3, 24 h
[31] = system: HEK-293T; test: Cytotoxicity against HEK293T cells assessed as reduction in cell viability upto 64 times MIC incubated for 24 hrs by CCK-8 assay; assay type: toxicity, cell-based; settings: human
[32] = system: Staphylococcus aureus; test: Antibacterial activity against methicillin-resistant Staphylococcus aureus infected in female C57BL/6 mouse wound model assessed as log reduction in viable bacterial count at 10 mg/kg administered twice on wounds with 6 hrs interval and measured for 7 days; assay type: functional; settings: time 7 day
[33] = system: Staphylococcus aureus; test: Antibacterial activity against methicillin-resistant Staphylococcus aureus infected in female C57BL/6 mouse wound model assessed as log reduction in viable bacterial count at 30 mg/kg administered twice on wounds with 6 hrs interval and measured for 7 days; assay type: functional; settings: time 7 day
[34] = system: Staphylococcus aureus; test: Antibacterial activity against methicillin-resistant Staphylococcus aureus infected in female C57BL/6 mouse wound model assessed as reduction in wound area at 30 mg/kg administered twice on wounds with 6 hrs interval and measured for 7 days; assay type: functional, organism-based; settings: time 7.0 day
[35] = Toxicity in female C57BL/6 mouse assessed as erythema in skin at 10 to 30 mg/kg administered daily for 3 days; assay type: organism-based; settings: in vivo, 72 h, dose 10-30 mg/kg, time 3 day
[36] = Toxicity in female C57BL/6 mouse assessed as edema in skin at 10 to 30 mg/kg administered daily for 3 days; assay type: organism-based; settings: in vivo, 72 h, dose 10-30 mg/kg, time 3 day
[37] = Toxicity in female C57BL/6 mouse assessed as changes in skin tissue at 10 to 30 mg/kg administered daily for 3 days and measured on day 4 by H and E staining based microscopic analysis; assay type: organism-based; settings: in vivo, 96 h, dose 10-30 mg/kg, time 4 day
[38] = system: Staphylococcus aureus; test: Induction of intracellular ROS accumulation in methicillin-resistant Staphylococcus aureus assessed as number of fluorescence cells at 8 times MIC incubated for 6 hrs by DCFH-DA staining based flow cytometry analysis (reference value: 3.88)

With CC1(C)CC[C@]2(C(=O)NS(=O)(=O)c3ccc(Cl)cc3)CC[C@]3(C)C(=CC[C@@H]4[C@@]5(C)Cc6c([nH]c7c(C(=O)O)cccc67)C(C)(C)[C@@H]5CC[C@]43C)[C@@H]2C1 the MIC [1] was 2 µM (≈ 1.49 µg/mL), the MIC [2] was 1 µM (≈ 0.745 µg/mL) and the MIC [3] was 2 µM (≈ 1.49 µg/mL). The MBC [4] was 2 µM (≈ 1.49 µg/mL), the MBC [5] was 2 µM (≈ 1.49 µg/mL) and the MBC [6] was 2 µM (≈ 1.49 µg/mL). The MBC [7] was 4 µM (≈ 2.98 µg/mL), the Activity [8] was “Active” and the Activity [9] was “Active”. For the same compound, the Activity [10] was “Active”, the Activity [11] was “Active” and the Activity [12] was “Active”. The Activity [13] was “Active”, the “inhibition (INH)” value [14] was 100% and the “inhibition (INH)” value [15] was 100%. For the same compound, the Activity [16] was “inactive”, the “inhibition (INH)” value [17] was 81% and the Activity [18] was 52%. The Activity [19] was “Dose-Dependent Effect”, the Activity [20] was 55% and the Activity [21] was 168 µg/mL. For the same compound, the Activity [22] was “Active”, the Activity [23] was “Active” and the Activity [24] was “Active”. For the same compound, the Activity [25] was “Dose-Dependent Effect”, the Activity [26] was “Dose-Dependent Effect” and the Activity [27] was 11.6. The Activity [28] was 13.5, the Activity [29] was 46.5 and the Activity [30] was “Non-Toxic”. For the same compound, the Activity [31] was “Non-Toxic”, the “log(activity)” value [32] was ~1.6 and the “log(activity)” value [33] was 2.5. For the same compound, the Activity [34] was “Active”, the Activity [35] was “Non-Toxic” and the Activity [36] was “Non-Toxic”. For the same compound, the Activity [37] was “Non-Toxic” and the Activity [38] was 1.99.
